# Where two headings read alike, the source gives them in different places.
# Tests used:
# [1] = Adsorbent study: reduction of 3NOP concentration in solution (HPLC 230 nm); settings: 0.2 g of adsorbent in 10 mL of 1% 3NOP/H2O; 24 h; control 8.258 mM
# Description: (§1) The solution was then placed in an ultrasonic bath for ˜4 hr and then allowed to equilibrate over 24 h.
# [2] = 3NOP pH and temperature stability (HPLC); type: physicochemical; settings: 1-month time period, 4-30 C, pH 4-10
# Description: 3NOP pH and Temperature Stability: Confirmed via HPLC over a 1-month time period at temperature between 4-30 C and pH 4-10.
# [3] = 3NOP volatility (mass loss in open vial); type: physicochemical; settings: 500 mg in 5 dram vial open to air, ˜18-24 C, 15-30% RH, 6 days
# Description: 3NOP Volatility: 500 mg of 3NOP in a 5 dram vial was left open to air at ˜18-24 C at 15-30% RH over the course of 6 days. Average mass loss is ˜0.25% per day.
# [4] = tested on: methane production; settings: cited from earlier work
# [5] = buffer, 24 h
# Description: as §1
# [6] = tested on: Mbb. ruminantium, Ms. mazei, and Mm. mobile; settings: cited from earlier work
compound,measurement,setting,value
Cyclodextrin,3NOP concentration remaining in solution,[1],7.676 mM
"O=[N+]([O-])OCCCO [Group 3NOP, 3-Nitrooxypropanol]",3NOP pH and Temperature Stability,[2],Confirmed
same,3NOP Volatility: average mass loss,[3],~0.25 % per day
same,maximum methane suppression amount,[4]; 60 mg/kg of feed dry matter,"26%/day (Melgar et al., 2020)"
NCCCC[C@H](N)C(=O)O [Lysine],3NOP concentration remaining in solution,[5]; 50 mg/mL,18.583 mM
O=C([O-])CC(O)(CC(=O)[O-])C(=O)[O-].[Bi+3] [Bismuth Citrate],3NOP concentration remaining in solution,[1],8.072 mM
"O=c1[nH]c(=O)c2nccnc2[nH]1 [lumazin, 2,4-pteridinedione]","CH4 production by Mbb. ruminantium, Ms. mazei, and Mm. mobile",[6]; dose-dependent from 0.06 to 0.24 mmol/L,significantly decreased
NC(=O)CC[C@H](N)C(=O)O [Glutamine],3NOP concentration remaining in solution,[5]; 20 mg/mL,7.588 mM
O=[N+]([O-])O [Nitrate],maximum methane suppression amount,[4]; 5 mM,"5 mM; 43.26% Lin rt al., 2017)"
same,maximum methane suppression amount,[4]; 5 mmol/L,5 mmol/L; 32.92%
same,maximum methane suppression amount,[4]; 20 mg/g dry matter,20 mg/g dry matter; 21%
N=C(N)NCCC[C@H](N)C(=O)O [Arginine],3NOP concentration remaining in solution,[5]; 50 mg/mL,19.782 mM
O=S(=O)([O-])[O-].O=S(=O)([O-])[O-].O=S(=O)([O-])[O-].[Bi+3].[Bi+3] [Bismuth Sulfate],3NOP concentration remaining in solution,[1],8.079 mM
O=S(=O)([O-])[O-].[Cu+2] [Copper Sulfate],3NOP concentration remaining in solution,[1],7.814 mM
"O=S(=O)(O)CCCBr [BPS, 3-bromopropanesulfonate]",sensitivity of methanogens in pure cultures,"[6]; up to 250 μmol/L, all three species",resistant

# From patent US20250222082A1, “PROTEIN AND PEPTIDE VACCINES TARGETING METHANOGENS” (Arkea Bio Corp., priority 2024, published 2025)
